Experiment: mn = molality of the nth substance listed, in mol/kg
Settings: 101.33 kPa, Liquid; for speed of sound: Frequency=3 MHz, Linear variable-path acoustic interferometer; for mass density: Pycnometric method; for viscosity: Capillary tube (Ostwald / Ubbelohde) method

N[C@@H](Cc1ccccc1)C(=O)O [L-phenylalanine] + O
Settings	mass density [kg/m3]	speed of sound [m/s]	viscosity [mPa·s]
293.15 K, m1 = 0.0249	999.4	1488.8	–
293.15 K, m1 = 0.0498	1000.55	1493	–
293.15 K, m1 = 0.0749	1001.71	1496.2	–
293.15 K, m1 = 0.0999	1002.88	1498.3	–
293.15 K, m1 = 0.125	1004.04	1499.4	–
293.15 K, m1 = 0.1499	1005.2	1499.4	–
298.15 K, m1 = 0.0249	998.23	1501.9	0.9038
298.15 K, m1 = 0.0498	999.39	1505.9	0.9168
298.15 K, m1 = 0.0749	1000.55	1509	0.9299
298.15 K, m1 = 0.0999	1001.72	1511	0.9431
298.15 K, m1 = 0.125	1002.88	1512	0.9561
298.15 K, m1 = 0.1499	1004.05	1511.9	0.9691
303.15 K, m1 = 0.0249	996.84	1513.1	0.8083
303.15 K, m1 = 0.0498	998	1516.8	0.819
303.15 K, m1 = 0.0749	999.17	1519.5	0.8294
303.15 K, m1 = 0.0999	1000.34	1521.2	0.8399
303.15 K, m1 = 0.125	1001.51	1521.8	0.8505
303.15 K, m1 = 0.1499	1002.68	1521.3	0.8605
308.15 K, m1 = 0.0249	995.24	1524.1	0.7285
308.15 K, m1 = 0.0498	996.4	1527.4	0.7372
308.15 K, m1 = 0.0749	997.58	1529.8	0.7462
308.15 K, m1 = 0.0999	998.75	1531.1	0.7545
308.15 K, m1 = 0.125	999.92	1531.4	0.7635
308.15 K, m1 = 0.1499	1001.09	1530.6	0.7722
313.15 K, m1 = 0.0249	993.43	1530.8	0.6607
313.15 K, m1 = 0.0498	994.6	1533.8	0.668
313.15 K, m1 = 0.0749	995.78	1535.8	0.6749
313.15 K, m1 = 0.0999	996.96	1536.8	0.682
313.15 K, m1 = 0.125	998.14	1536.7	0.6897
313.15 K, m1 = 0.1499	999.32	1535.7	0.6968
318.15 K, m1 = 0.0249	991.43	1536.5	0.604
318.15 K, m1 = 0.0498	992.61	1539.1	0.6102
318.15 K, m1 = 0.0749	993.8	1540.8	0.616
318.15 K, m1 = 0.0999	994.98	1541.5	0.622
318.15 K, m1 = 0.125	996.17	1541.3	0.6285
318.15 K, m1 = 0.1499	997.36	1540	0.6346
